{"source": "paper PMC6872814", "about": "“Functional interactions between nitrite reductase and nitric oxide reductase from Paracoccus denitrificans” (Scientific Reports, 2019)", "biological_target": "T1, cNOR (c-type nitric oxide reductase, NorB and NorC) (Paracoccus denitrificans, UniProt A1B4X6+Q51662)", "T1 construct": "gene Pden_2483; NorBC two-subunit complex, plasmid pNOREX in E. coli JM109 with pEC86, DDM-solubilised and purified; reconstituted in liposomes for the Km", "T1 sequence (A1B4X6 1-462)": "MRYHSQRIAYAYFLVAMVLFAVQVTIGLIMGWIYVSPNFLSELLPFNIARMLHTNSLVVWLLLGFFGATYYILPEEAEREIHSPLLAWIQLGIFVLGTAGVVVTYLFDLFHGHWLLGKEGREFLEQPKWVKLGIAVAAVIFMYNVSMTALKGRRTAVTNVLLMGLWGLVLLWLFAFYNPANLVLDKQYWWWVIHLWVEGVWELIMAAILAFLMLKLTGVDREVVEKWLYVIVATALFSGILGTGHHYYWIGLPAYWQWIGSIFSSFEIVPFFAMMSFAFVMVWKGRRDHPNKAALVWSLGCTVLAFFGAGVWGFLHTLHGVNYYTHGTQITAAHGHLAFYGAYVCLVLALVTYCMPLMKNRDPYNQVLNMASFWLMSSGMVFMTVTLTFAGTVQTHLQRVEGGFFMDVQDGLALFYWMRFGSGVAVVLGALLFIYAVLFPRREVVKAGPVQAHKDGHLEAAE", "T1 sequence (Q51662 2-150)": "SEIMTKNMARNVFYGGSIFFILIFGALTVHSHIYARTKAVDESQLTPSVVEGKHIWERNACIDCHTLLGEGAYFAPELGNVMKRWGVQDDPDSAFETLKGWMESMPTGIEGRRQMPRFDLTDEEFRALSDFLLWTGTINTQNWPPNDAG", "assay": "Clark-type NO electrode, inhibition of NO reduction, data not shown", "type": "biochemical", "details": "inhibitor at high (mM) concentrations; 50 mM HEPES pH 7.0, 50 mM KCl"}
{"smiles": "O=NO", "note": "[nitrite]", "values": [{"measurement": "Clark-type NO electrode, inhibition of NO reduction, data not shown", "value": "For nitrite, we see that it can inhibit cNOR activity, but only at high (mM)"}]}
